Test: Forced degradation of methadone hydrochloride solutions (HPLC)
Conditions: 1M hydrochloric acid or 0.1M sodium hydroxide, 25° C. for a week

SMILES: CCC(=O)C(CC(C)N(C)C)(c1ccccc1)c1ccccc1 (stereo not shown) [methadone]
- Stability with acids and bases: no detected degradation
